Experimental findings from patent US6497872B1, “Neural transplantation using proliferated multipotent neural stem cells and their progeny” (NeuroSpheres Holdings Ltd., priority 1991, dated 2002) are described below.

In this assay the test system is BrdU positive cells in cervical spinal cord. Kind of assay: In vivo infusion of growth factors into ventricles, BrdU labelling of cervical spinal cord (Example 30). Also on record: species or system mouse. The settings on record: 25 μg/mL, osmotic mini-pump, six days. How it is done:
Adult male CD1 albino mice (30-35 g) from Charles River were anaesthetized with sodium pentobarbital ([…]) and placed in a stereotaxic apparatus. The dorsal aspect of the skull was exposed with a longitudinal incision. Cannulas were inserted into the fourth ventricle (stereotaxic coordinates A/P −7.0, L ±0.3 D/V −5.8), cerebral aqueduct (A/P −4.8 L ±D/V −2.6), or central canal (DIV −1.5). The cannulae were attached with sterile tubing to subcutaneous positioned ALZET osmotic mini-pumps containing 25 μg/mL EGF (Becton 40001) and/or 25 μg/mL FGF-2 (R&D Systems 233-FB). Pumps containing sterile saline plus 0.1% mouse albumin (Sigma A3134) were used as controls. The incisions were closed with dental cement.
Six days following surgery mice were injected with 0.15 mL BrdU (Sigma B5002); 18 mg/mL in 0.007% NaOH/0.1M PBS) every 2 hours for 8 hours. They were killed 0.5 hours after the last injection with an anaesthetic overdose, and transcardially perfused with 10 mL of ice-cold sterile saline followed by 10 mL of ice-cold Bouin's fixative (5% glacial acetic acid, 9% formaldehyde, 70% picric acid). The cervical spinal cord region was dissected out and post-fixed overnight at 4° C. in Bouin's post-fixative solution (9% formaldehyde, 70% picric acid). […] The number of BrdU positive cells was counted per cervical spinal cord section. […]
In general terms: Incorporation of labelled thymidine or its analogues reports DNA synthesis.

Consider “bFGF: basic fibroblast growth factor, recombinant human (R & D Systems)”, for which the “number of BrdU labelled cells per cervical spinal cord section compared to control” value was “significant increase”.
